From patent US11950611B2, “Highly soluble Rebaudioside D” (PURECIRCLE SDN BHD, priority 2013, dated 2024)

Key:
[1] = cited from earlier work
[2] = room temperature, water; cited from earlier work
[3] = Solubility of Rebaudioside D (crystalline vs amorphous) in water; format: physicochemical; conditions: for water solubility: room temperature, g per 100 g solvent
Protocol: Hereinafter, unless specified otherwise the solubility of material is determined in RO (reverse osmosis) water at room temperature. […] The solution was maintained at 50° C. and dried using a YC-015 laboratory spray drier (Shanghai Pilotech Instrument & Equipment Co. Ltd., China) operating at 175° C. inlet and 100° C. outlet temperatures.

SMILES | Rate of dissolution in H2O at 25° C. (in words) [1] | Rate of dissolution in H2O at 25° C., amount dissolved in 5 minutes [1] | water solubility [3] | other results
C=C1C[C@@]23CC[C@H]4[C@@](C)(CCC[C@@]4(C)C(=O)O[C@@H]4O[C@H](CO)[C@@H](O)[C@H](O)[C@H]4O)[C@@H]2CC[C@]1(O[C@@H]1O[C@H](CO)[C@@H](O)[C@H](O[C@@H]2O[C@H](CO)[C@@H](O)[C@H](O)[C@H]2O)[C@H]1O[C@@H]1O[C@H](CO)[C@@H](O)[C@H](O)[C@H]1O)C3 [Form 1, Rebaudioside A] | Very low |  |  | Rate of dissolution in H2O at 25° C., amount dissolved in 60 minutes ([1]; in 60 minutes): (<0.2% in 60
C=C1C[C@@]23CC[C@H]4[C@@](C)(CCC[C@@]4(C)C(=O)O[C@@H]4O[C@H](CO)[C@@H](O)[C@H](O)[C@H]4O)[C@@H]2CC[C@]1(O[C@@H]1O[C@H](CO)[C@@H](O)[C@H](O[C@@H]2O[C@H](CO)[C@@H](O)[C@H](O)[C@H]2O)[C@H]1O[C@@H]1O[C@H](CO)[C@@H](O)[C@H](O)[C@H]1O)C3 [Form 2, Rebaudioside A] | Intermediate | (<30% in 5 |  | 
C=C1C[C@@]23CC[C@H]4[C@@](C)(CCC[C@@]4(C)C(=O)O[C@@H]4O[C@H](CO)[C@@H](O)[C@H](O)[C@H]4O)[C@@H]2CC[C@]1(O[C@@H]1O[C@H](CO)[C@@H](O)[C@H](O[C@@H]2O[C@H](CO)[C@@H](O)[C@H](O)[C@H]2O)[C@H]1O[C@@H]1O[C@H](CO)[C@@H](O)[C@H](O)[C@H]1O)C3 [Form 3, Rebaudioside A] | High | (>30% in 5 |  | 
C=C1C[C@@]23CC[C@H]4[C@@](C)(CCC[C@@]4(C)C(=O)O[C@@H]4O[C@H](CO)[C@@H](O)[C@H](O)[C@H]4O)[C@@H]2CC[C@]1(O[C@@H]1O[C@H](CO)[C@@H](O)[C@H](O[C@@H]2O[C@H](CO)[C@@H](O)[C@H](O)[C@H]2O)[C@H]1O[C@@H]1O[C@H](CO)[C@@H](O)[C@H](O)[C@H]1O)C3 [Form 4, Rebaudioside A] | High | (>35% in 5 |  | 
C=C1C[C@@]23CC[C@H]4[C@@](C)(CCC[C@@]4(C)C(=O)O[C@@H]4O[C@H](CO)[C@@H](O)[C@H](O)[C@H]4O)[C@@H]2CC[C@]1(O[C@@H]1O[C@H](CO)[C@@H](O)[C@H](O[C@@H]2O[C@H](CO)[C@@H](O)[C@H](O)[C@H]2O)[C@H]1O[C@@H]1O[C@H](CO)[C@@H](O)[C@H](O)[C@H]1O)C3 [Rebaudioside A] |  |  |  | thermodynamic equilibrium solubility [2]: 0.8%
C=C1C[C@@]23CC[C@H]4[C@@](C)(CCC[C@@]4(C)C(=O)O[C@@H]4O[C@H](CO)[C@@H](O)[C@H](O)[C@H]4O[C@@H]4O[C@H](CO)[C@@H](O)[C@H](O)[C@H]4O)[C@@H]2CC[C@]1(O[C@@H]1O[C@H](CO)[C@@H](O)[C@H](O[C@@H]2O[C@H](CO)[C@@H](O)[C@H](O)[C@H]2O)[C@H]1O[C@@H]1O[C@H](CO)[C@@H](O)[C@H](O)[C@H]1O)C3 [Rebaudioside D] |  |  | 0.05% | water solubility when heat is applied ([3]; heated, upon cooling to room temperature crystallizes back out): up to 0.5%
C=C1C[C@@]23CC[C@H]4[C@@](C)(CCC[C@@]4(C)C(=O)O[C@@H]4O[C@H](CO)[C@@H](O)[C@H](O)[C@H]4O[C@@H]4O[C@H](CO)[C@@H](O)[C@H](O)[C@H]4O)[C@@H]2CC[C@]1(O[C@@H]1O[C@H](CO)[C@@H](O)[C@H](O[C@@H]2O[C@H](CO)[C@@H](O)[C@H](O)[C@H]2O)[C@H]1O[C@@H]1O[C@H](CO)[C@@H](O)[C@H](O)[C@H]1O)C3 [amorphous Reb D, Rebaudioside D] |  |  | 0.2% | 
C=C1C[C@@]23CC[C@H]4[C@@](C)(CCC[C@@]4(C)C(=O)O[C@@H]4O[C@H](CO)[C@@H](O)[C@H](O)[C@H]4O[C@@H]4O[C@H](CO)[C@@H](O)[C@H](O)[C@H]4O)[C@@H]2CC[C@]1(O[C@@H]1O[C@H](CO)[C@@H](O)[C@H](O[C@@H]2O[C@H](CO)[C@@H](O)[C@H](O)[C@H]2O)[C@H]1O[C@@H]1O[C@H](CO)[C@@H](O)[C@H](O)[C@H]1O)C3 [crystalline Rebaudioside D, Rebaudioside D] |  |  | 0.05% | Solubility, % (in water) 20° C. ([3]; water, 20° C.): 0.05%; Solubility, % (in water) 50° C.* ([3]; water, 50° C., solution crystallized after cooling to room temperature (20° C.)): 0.2%; Solubility, % (in water) 100° C.* ([3]; water, 100° C., solution crystallized after cooling to room temperature (20° C.)): 0.5%
